Data: US8022225B2, “Triazole derivative” (Taisho Pharmaceutical Co., Ltd, priority 2004, dated 2011)

Experiments:
human Edg-1(S1P1) [1] = biological target: T1, human Edg-1(S1P1) (Homo sapiens, UniProt P21453); experiment: Cell system binding test: inhibition of [3H]-S1P binding to Edg-1(S1P1) gene transferred HEK-293 cells; conditions: [3H]-S1P 10 nM
T1 construct: expressed in transfected cells; host or cells: HEK-293
Description: Cells (1×10^5 cells/well) obtained as described above were seeded in poly-L-lysine-coated 96-well plates (Corning Incorporated), and then incubated in a 5% carbon dioxide gas incubator for 12 hours at 37° C. with the use of an MEM medium (Invitrogen Corporation) containing 100 U/mL of penicillin, 100 μg/mL of streptomycin, a 1% MEM nonessential amino acid solution, and 10% FCS. […] After the cells were washed twice with the buffer, they were solubilized with 100 μL of Opti Phase Supermix (produced by Perkin-Elmer), and measured for radioactivity by means of Micro Beta (produced by Perkin-Elmer).
Inhibition rate(%)=[1−(A−C)/(B−C)]×100

human Edg-1(S1P1) [2] = biological target: T1, human Edg-1(S1P1); experiment: Membrane system binding test: inhibition of [33P]-S1P binding to the membrane fraction of Edg-1(S1P1) gene transferred HEK-293 cells; conditions: [33P]-S1P 0.1 nM
Description: The membrane fraction was obtained by treating the cells with a solubilizing buffer (1 mM Tris/HCl, pH 7.2) for 10 minutes on ice, centrifuging the system (1000×g, 5 min) to remove insoluble fractions, and then centrifuging the system (40000×g, 30 min, 4° C.). The resulting membrane fraction was dissolved in a binding buffer (20 mM Tris-HCl, pH 7.4, 100 mM NaCl, 15 mM NaF, 2 mM deoxypyridoxine, 4 mg/mL fatty acid-free BSA), and then [^33P]-S1P (produced by ARC, end concentration 0.1 nM) and a DMSO solution of the test compound (end concentration of the compound: 10^−5 M, end concentration of DMSO: 0.1%) were added, followed by stirring the mixture and subsequently treating it for 1 hour at 30° C. Using a harvester, the membrane fraction was harvested onto unifilter-96GF/C filter (produced by Perkin-Elmer). Then, the filter with the membrane fraction was washed 4 times with the binding buffer, and the filter was dried. To the filter, 25 μL Microscint 0 (produced by Perkin-Elmer) was added, and the assay system was measured for radioactivity by means of Top Count NXT (Packard). Based on the radioactivity, the amount (A) of binding of [^33P]-S1P to the membrane fraction upon addition of the compound was calculated.
The same procedure was performed in the absence of the test compound, and the amount (B) of binding of [^33P]-S1P was calculated. Moreover, the same procedure was performed in the absence of the test compound with the use of HEK-293 cells, to which the Edg-1(S1P1) gene had not been transferred, and the background amount (C) of binding of [^33P]-S1P was calculated.
The Edg-1(S1P1) binding inhibition rate of the compound, calculated from the following equation, is shown in […]

[3] = 10 μM compound, read-out: Cell system binding test % inhibition (10 μM)
[4] = 10 μM compound, membrane fraction of Edg-1(S1P1) gene transferred HEK-293 cells, read-out: Membrane system binding test % inhibition (10 μM)
[5] = test compound 10^-5 M, 1 hour, read-out: Edg-1(S1P1) binding inhibition rate (cell system binding test)
[6] = test compound 10^-5 M, 1 hour at 30° C., HEK-293 membrane fraction, read-out: Edg-1(S1P1) binding inhibition rate (membrane system binding test)

T1 sequence (P21453 whole entry): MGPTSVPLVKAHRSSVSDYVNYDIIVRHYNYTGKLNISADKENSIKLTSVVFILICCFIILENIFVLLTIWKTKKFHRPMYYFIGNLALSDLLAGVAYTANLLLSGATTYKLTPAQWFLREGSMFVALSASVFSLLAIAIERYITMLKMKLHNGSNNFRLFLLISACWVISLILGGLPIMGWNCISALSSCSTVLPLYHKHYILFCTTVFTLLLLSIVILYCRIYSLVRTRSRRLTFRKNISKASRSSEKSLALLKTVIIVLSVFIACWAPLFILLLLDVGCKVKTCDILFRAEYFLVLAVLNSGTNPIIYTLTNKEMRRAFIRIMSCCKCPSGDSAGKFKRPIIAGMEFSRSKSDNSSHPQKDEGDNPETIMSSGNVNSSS

SMILES	inhibition at 10 µM (human Edg-1(S1P1) [1]; [3]) [%]	inhibition at 10 µM (human Edg-1(S1P1) [2]; [4]) [%]	also measured
CCCCc1ccc(S(=O)(=O)N[C@H](C)c2nnc(OC)n2CC)cc1 [Compound 207]	95.8	43.5	
CCn1c(OC)nnc1[C@@H](C)NS(=O)(=O)c1ccc(F)c(C(F)(F)F)c1 [Compound 321]	100	99.7	
CCn1c(SCCCc2ccccc2)nnc1[C@@H](C)NS(=O)(=O)c1ccc(Cl)cc1 [Compound 39]	93.8	86.7	
CCn1c(OC)nnc1[C@@H](C)NS(=O)(=O)c1ccc(OC)cc1 [Compound 226]	92.3	42.4	
CCn1c(OC)nnc1[C@@H](C)NS(=O)(=O)c1ccc(Cl)cc1 [Compound 185]	87.4	86.6	
CCn1c(OC)nnc1[C@@H](C)NS(=O)(=O)c1cccc2c(N(C)C)cccc12 [Compound 218]	101	40.2	
CCCCSc1nnc([C@@H](C)NS(=O)(=O)c2ccc(Cl)cc2)n1CC [Compound 29]	93	95.9	
CCn1c(OC)nnc1[C@@H](C)NS(=O)(=O)c1ccccc1[N+](=O)[O-] [Compound 231]	96.6	40.3	
CCn1c(OC)nnc1[C@@H](C)NS(=O)(=O)c1cccc(Br)c1 [Compound 206]	103	86.2	
CCn1c(OCC(F)(F)F)nnc1[C@@H](C)NS(=O)(=O)c1cc(F)c(Br)cc1F [Compound 517]			inhibition at 10 µM (human Edg-1(S1P1) [1]; [5]): 93.7%; inhibition at 10 µM (human Edg-1(S1P1) [2]; [6]): 42.7%
CCC#CCSc1nnc([C@@H](C)NS(=O)(=O)c2ccc(Cl)cc2)n1CC [Compound 17]	85.5	90.6	
CCn1c(OC)nnc1[C@@H](C)NS(=O)(=O)c1cc(F)c(Br)cc1F [Compound 449]			Cell system binding test % inhibition (10 μM) (human Edg-1(S1P1) [1]; 10 μM compound): 91.6%; Membrane system binding test % inhibition (10 μM) (human Edg-1(S1P1) [2]; 10 μM compound, membrane fraction of Edg-1(S1P1) gene transferred HEK-293 cells): 65.9%
CCOc1nnc([C@@H](C)NS(=O)(=O)c2ccc(Br)cc2)n1CC [Compound 409]	88.1	92.2	
CCn1c(OC2CCC2)nnc1[C@@H](C)NS(=O)(=O)c1ccc(Cl)cc1 [Compound 387]	102	99.3	
CCn1c(OCC(F)(F)F)nnc1[C@@H](C)NS(=O)(=O)c1ccc(Cl)c(Cl)c1 [Compound 485]			inhibition at 10 µM (human Edg-1(S1P1) [1]; [5]): 103%; inhibition at 10 µM (human Edg-1(S1P1) [2]; [6]): 95.5%
COc1nnc([C@@H](C)NS(=O)(=O)c2ccc(Cl)cc2)n1C1CC1 [Compound 543]			inhibition at 10 µM (human Edg-1(S1P1) [1]; [5]): 93.1%; inhibition at 10 µM (human Edg-1(S1P1) [2]; [6]): 101%
CCn1c(OCC(F)(F)F)nnc1[C@@H](C)NS(=O)(=O)c1cccc(OC(F)(F)F)c1 [Compound 504]			inhibition at 10 µM (human Edg-1(S1P1) [1]; [5]): 96.6%; inhibition at 10 µM (human Edg-1(S1P1) [2]; [6]): 54%
CCn1c(SCCc2ccc(Cl)cc2)nnc1[C@@H](C)NS(=O)(=O)c1ccc(Cl)cc1 [Compound 19]	82.5	100	
CCn1c(OC)nnc1[C@@H](C)NS(=O)(=O)c1cc(C(=O)OC)c(C)o1 [Compound 257]	95.7	58.1	
CCn1c(OC(C)C)nnc1[C@@H](C)NS(=O)(=O)c1ccc(C)c(F)c1 [Compound 463]			inhibition at 10 µM (human Edg-1(S1P1) [1]; [5]): 88.7%; inhibition at 10 µM (human Edg-1(S1P1) [2]; [6]): 97.2%
CCn1c(OC(C)C)nnc1[C@@H](C)NS(=O)(=O)c1cccc(C(F)(F)F)c1 [Compound 468]			inhibition at 10 µM (human Edg-1(S1P1) [1]; [5]): 96.9%; inhibition at 10 µM (human Edg-1(S1P1) [2]; [6]): 75.8%
CCn1c(SC(C)C)nnc1[C@@H](C)NS(=O)(=O)c1ccc(Cl)cc1 [Compound 54]	88.7	105	
CCn1c(OC)nnc1[C@@H](C)NS(=O)(=O)c1ccc2nsnc2c1 [Compound 341]	99.4	99.4	
CCn1c(OC)nnc1[C@@H](C)NS(=O)(=O)c1ccc(F)c(C#N)c1 [Compound 307]	96.2	68	
CCSc1nnc([C@@H](C)NS(=O)(=O)c2ccc(Cl)cc2)n1CC [Compound 53]	90.8	89.3	
